Assay results taken from patent US20180271809A1, “USE OF NICLOSAMIDE IN THE TREATMENT OF P53-DEFICIENT CELLS” (AGENCY FOR SCIENCE, TECHNOLOGY AND RESEARCH, priority 2015, published 2018).

Legend:
HCT116 p53^−/− cells [1] = experiment: Co-culture cell viability / competition assay of H2B-GFP HCT116 p53+/+ and H2B-RFP HCT116 p53−/− cells; type: cell-based
Protocol: Stably expressing H2B-GFP-HCTp53^+/+ cell (wild type p53 cells) and H2B-RFP-HCTp53^−/− cells (cells lacking p53) were grown in co-culture to screen drug compounds sensitizing either wild type p53 cells or p53-negative cells. Briefly, 200 cells of each
HCT116p53^+/+ and HCT116p53^−/− were plated in a pre-coated 384-well drug plates at final cell density of 400 cells per well at a final volume of 80 μl per well. After plating cells into respective wells, plates were incubated for 6 days. After 6 days of drug incubation, plates were imaged in an Incell Analyzer 200 machine by performing a multi-channel read, that is applying FITC staining to count GFP positive cells and Texas Red staining to count RFP positive cells. After imaging, the raw data was processed through the Incell-Investigator software to count the number of GFP positive and RFP positive cells.
Wildtype HCT116 cells expressing H2B-GFP were co-cultured with HCT115 p53^−/− cells expressing H2B-RFP. […]
2000 cells each of H2B-GFP-HCT116p53^+/+ and H2B-RFP-HCT116p53^−/− were grown as co-culture in 96-well plates in a total volume of 100 ∥l. […] After 6 days of recovery, the cells were imaged in an Incell Analyzer 2000 machine and the percentage of viable cells was determined and plotted against the drug concentrations used in the experiment.

HCT116 p53^−/− cells [2] = experiment: Colony forming assay (crystal violet) in isogenic HCT116 cell lines; type: cell-based; details: 0.5-3 μM, 48 hours of drug treatment, recovery
[3] = tested on: Human skin fibroblast cells (TOBA cells); experiment: Cell viability (light microscopy) and Annexin V apoptosis assay in p53-depleted human skin fibroblast cells; type: cell-based
Protocol: Human skin fibroblast cells (TOBA cells) were infected either with a control shRNA lentivirus or a p53-targeting shRNA virus (as described in the preceding section). After generation of a stable p53-knockdown (using puro selection), cells were analysed for cell viability in response to different doses of niclosamide. Briefly, wild type Toba cells, and p53 depleted cells were plated at 20,000 cell density in 6 well plates. Next day, cells were either DMSO treated or treated with varying doses of niclosamide. After 48 hours of drug incubation, the drug containing media was replaced with new cell culture medium to start recovery. After 8 days of recovery, the cells were imaged in light microscope at 10× objective lens.
As described above, DMSO and niclosamide-treated cells were analysed for the presence of apoptotic cell death by Annexin V staining. All cells in a well, including both rounded floating (that is, dead or dying cells) and adherent cells (that is, live cells) were collected carefully by trypsinisation and centrifuged at 400 g for 5 minutes. The pellet was resuspended in 200 μl of incubation buffer and after re-suspension, centrifuged at same speed as above to collect the washed sample pellets. […]

[4] = tested on: p53-deficient HCT116 spheroid; experiment: 3D spheroid growth of co-cultured HCT116 p53+/+ and p53−/− cells; type: cell-based; details: 48 hours drug incubation, 6 more days culture
Protocol: H2B-GFP- HCT116p53^+/+ and H2B-RFP-p53^−/− cells were grown as co-culture in a ultralow attachment 96-well cell culture plates to promote the spheroid formation. Briefly, to generate 3D multicellular spheroids, H2B-GFP expressing wild type (WT) p53 cells and H2B-RFP expressing p53-negative cells were each seeded at 250 cells per 100 ∥l culture media into 96-well round-bottomed plate and spun down (1000 g, 5 min). The seeded cells were cultured for two days in 5% CO2 humidified atmosphere at 37° C. On third day, cells were either DMSO treated or treated with different doses of niclosamide. After 48 hours of drug incubation, spheroids were diluted to non-toxic concentrations via media exchange. Treated spheroids were then further cultured for 6 more days. Spheroids were imaged in Incell analyser 2000 with FITC and Texas-Red channels.

[5] = tested on: p53 null and p53 mutant cancer cells; experiment: Apoptotic cell death assays in p53 null and p53 mutant cancer cell lines; type: cell-based; details: data not shown
Protocol: To this end, various cancer cell lines/types were seeded according to their growth rate to be confluent at the same time. These cell lines were each treated with differing niclosamide concentrations for 48 hours. The cells were then allowed to recover in their respective media for 6 days, after which apoptotic cell death assays were performed. The resulting percentage of apoptotic cells in each sample were plotted on a 3D graph (data not shown).

[6] = tested on: Mouse embryonic stem cells harbouring a p53K0 mutation; experiment: Teratoma growth in nude mice from mouse embryonic stem cells pre-treated with niclosamide; type: in vivo; details: mES cells treated with 2 μM for 48 hours before injection into nude mice; tumours observed after 24 days / 3 weeks
Protocol: Mouse embryonic stem cells harbouring a p53K0 mutation were either treated with DMSO or treated with niclosamide at a concentration of 2 μM for 48 hours. The resulting trypsinised cells were then resuspended in Phosphate buffer Saline. The cells were counted and resuspended to result in a final cell concentration of 1×10^6 cells/100 μl. Immediately after counting, the cells were transferred to animal facility for nude mice injection. 100 μl of DMSO treated cells were injected into the right inguinal region, while 100 μl niclosamide treated cells were injected into the left inguinal region of each mouse. After 24 days of the injection, tumour growth was observed. The resulting teratomas were surgically removed analysed to observe the ability of niclosamide to inhibit tumour growth. […] Therefore, an in vivo tumour model in nude mice was utilised. As a control, mouse embryonic stem (mES) cells were injected into nude mice and the mice monitored for the presence of tumour growth (teratomas). mES cells treated with niclosamide or DMSO treated control cells were injected into nude mice and tumour growth monitored after 3 weeks.

[7] = tested on: ovarian tumour samples derived from patient biopsy samples; experiment: Patient-derived ovarian tumour xenograft mouse model; type: in vivo; details: 150 mg/kg once, intravenously; 30 days post treatment
Protocol: Experiments were also performed using a patient-derived xenograft mouse model. In these experiments, ovarian tumour samples derived from patient biopsy samples were implanted into either the left or right flank of the mouse. These tumours were allowed to establish in the mouse and the tumour volume was measured according to standard practice every 2 days post implantation. After reaching a minimum threshold size of about 200 mm^3, the mice were treated once, intravenously, with niclosamide at a concentration of 150 mg/kg. The change in tumour volume was measured for further 30 days post treatment.

[8] = tested on: mouse embryonic fibroblast (MEF) cells harbouring p53 mutations (+/R172 or R172/R172); experiment: Niclosamide sensitivity of mouse embryonic fibroblast (MEF) cells with wild type or mutant p53; type: cell-based; details: p53 +/R172 or R172/R172 versus wild type
Caspase-3 = Caspase-3 immunoblot of niclosamide-treated HCT116 cells; type: cell-based; details: HCT116 wild type p53 versus p53 deficient
Protocol: Like human fibroblast cells, these cells were also tested for apoptotic cell death, the data of which is shown in the graphs shown in FIG. 4B). […] Both HCT116 cells with wild type p53 and those which were p53 deficient were treated with niclosamide, and protein samples were immunoblotted with Caspase-3 antibody.

O=C(Nc1ccc([N+](=O)[O-])cc1Cl)c1cc(Cl)ccc1O [niclosamide, 2′,5-dichloro-4′-nitrosalicylanilide]
cell viability, HCT116 p53−/− versus HCT116 p53 wildtype (cell viability assay) (HCT116 p53^−/− cells [1]; after 48 hours of drug treatment, compared with DMSO controls): decrease in the viability of HCT116 p53^−/− cells to a greater extent than the HCT116 p53 wildtype cells | selective targeting in chemical biology screen (relative percentages of GFP and RFP cells) (HCT116 p53^−/− cells [1]; co-culture, 48 hours treatment, 7 days recovery in drug free media): selectively targeting HCT116 p53^−/− cells | cell viability, HCT116 p53−/− versus HCT116 p53 wildtype (colony formation assay) (HCT116 p53^−/− cells [2]): decrease in the viability of HCT116 p53^−/− cells to a greater extent than the HCT116 p53 wildtype cells | apoptosis (Annexin V) in p53-deficient versus wildtype human fibroblasts ([3]; 1-4 μM, 48 hours, then recovery, flow cytometry): greater extent of apoptosis in p53-deficient human fibroblasts | sensitivity / killing of p53-deficient human fibroblast cells (FIG. 3 taken together) ([3]; shp53 versus shcontrol cells): preferential killing of p53 deficient cells | 3D spheroid growth, p53-deficient versus wildtype HCT116 [4]: greater reduction of 3D p53-deficient HCT116 spheroid growth compared to wildtype spheroid | susceptibility (apoptotic cells) of p53 null and p53 mutant cancer cells ([5]; 48 hours treatment, 6 days recovery): strongly susceptible to treatment with niclosamide in a dose dependent manner | cell viability of the remaining (surviving) cells ([5]; certain cell lines): differentially reduced cell viability of the remaining cells in certain cell lines | size of the teratomas versus DMSO control [6]: significant reduction in the size of the teratomas | tumour growth (tumour volume) versus PBS control [7]: reduction in tumour growth | niclosamide sensitivity of p53 mutant MEF cells (bright field, crystal violet) [8]: p53 mutant MEF cells are sensitive to niclosamide | induction of cleaved caspase in p53 deficient HCT116 cells (western blot) (Caspase-3): clear induction of the cleaved caspase in p53 minus
